Here are results for seven compounds from ChEMBL document CHEMBL5108080 (J Med Chem, 2022).

The test system of assay [1] is Influenza A virus. Briefly: Antiviral activity against group 2 influenza A virus H3N2 (A/Hong Kong-11/1968) infected in human A549 cells assessed as inhibition of viral entry preincubated with compound for 30 mins followed by viral infection for 1 hour further incubated for 48 hrs with replacement of fresh medium containing compound. The format is functional, organism-based.

In assay [2] the test system is Influenza A virus. Description: Antiviral activity against group 2 influenza A virus H3N2 (A/Victoria/361/2011) infected in human A549 cells assessed as inhibition of viral entry preincubated with compound for 30 mins followed by viral infection for 1 hour further incubated for 48 hrs with replacement of fresh medium containing compound. Type of assay: functional, organism-based.

Bounds are passed on as bounds.

As to `COc1ccc(-c2nc3ncccn3c2NC2CCCCC2)cc1`, the EC50 is 30 nM in assay [1] and 640 nM in assay [2].

Take `Fc1ccc(-c2nc3ncccn3c2NC2CCCCC2)cc1`: the EC50 in assay [1] stood at 320 nM; in assay [2], 420 nM.

Turning to `CCOC(=O)C1=C[C@@H](OC(CC)CC)[C@H](NC(C)=O)[C@@H](N)C1` [OSELTAMIVIR], the EC50 in assay [1] was 22 nM; in assay [2], above 10000 nM.

Turning to `Oc1ccc(-c2nc3ncccn3c2NC2CCCCC2)cc1`, the EC50 was 360 nM in assay [1] and 1500 nM in assay [2].

Consider `c1ccc(-c2nc3ncccn3c2NC2CCCCC2)cc1`, for which the EC50 in assay [1] stood at 71 nM; in assay [2] it was 730 nM.

Regarding `Brc1ccc(-c2nc3ncccn3c2NC2CCCCC2)cc1`, the EC50 came out at 190 nM in assay [1] and 1500 nM in assay [2].

Take `Cc1cc(Br)ccc1-c1nc2ncccn2c1NC1CCCCC1`: the EC50 in assay [1] amounted to 340 nM.
